System: brains, heart, liver, muscle, and DRG of the NHPs
Assay: Maturation of TTM-001 and TTM-002 capsids, NGS enrichment in NHP tissues
Format: in vivo
Text: This Example describes maturation of the AAV9 capsid variants, TTM-001 (SEQ ID NO: 981 (amino acid) and 983 (DNA), comprising SEQ ID NO: 941 (encoded by SEQ ID NO: 942)) and TTM-002 (SEQ ID NO: 982 (amino acid) and 984 (DNA), comprising SEQ ID NO: […] (encoded by SEQ ID NO: 944)) in NHPs to further enhance their transduction and biodistribution in the central nervous system as well as other tissues, and evolve the AAV capsid variants to provide further cross-species compatibility. Two approaches were used to mature the TTM-001 and TTM-002 capsid sequences in order to randomize and mutate within and around the peptide insert comprised within loop IV of the capsid variant. […] In the first maturation approach, sets of three contiguous amino acids were randomized across the mutagenesis region in the TTM-001 and TTM-002 sequences, which spanned from position 450 to position 466, numbered according to SEQ ID NO: 981 and 982. In the second maturation approach, mutagenic primers were used to introduce point mutations at a low frequency, scattered across the mutagenesis region in the TTM-001 and TTM-002 sequences ranging from position 449 to position 466, numbered according to SEQ ID NO: 981 and 982. AAV capsid variants arising from each maturation approach for TTM-001 and TTM-002 were pooled together, for subsequent testing and characterization in NHPs.
The library of pooled matured AAV capsid variants generated using the first maturation approach and the second maturation approach for the TTM-001 and TTM-002 AAV capsid variants were injected into two NHPs. […] Following RNA recovery and RT-PCR amplification, a systematic NGS enrichment analysis was performed to calculate the fold enrichment ratio relative to an AAV9 control, and the peptides comprised within the variants were identified.
Following the RNA recovery and NGS analysis from the second maturation approach, approximately 680,000 capsid variants were identified. The 680,000 matured capsid variants were then filtered based on samples with a raw virus count greater than 10 and a coefficient of variance (CV) of less than 1, which was calculated for each peptide across the brain samples taken from the two NHPs. […] Using this filtering criteria, this led to approximately 64,000 matured capsid variants.

[1] = NGS fold-enrichment, DRG, NHP, relative to AAV9
[2] = NGS fold-enrichment, brain, NHP, relative to AAV9
[3] = NGS fold-enrichment, heart, NHP, relative to AAV9
[4] = NGS fold-enrichment, liver DNA, NHP, relative to AAV9
[5] = NGS fold-enrichment, liver RNA, NHP, relative to AAV9
[6] = NGS fold-enrichment, muscle, NHP, relative to AAV9
[7] = NHP DRG, NGS, relative to AAV9 control
[8] = NHP brain, NGS, relative to AAV9 control
[9] = NHP heart, NGS, relative to AAV9 control
[10] = NHP liver DNA, NGS, relative to AAV9 control
[11] = NHP liver RNA, NGS, TTM-001 and TTM-002 matured AAV capsid variants, relative to AAV9 control
[12] = NHP muscle, NGS, relative to AAV9 control

Row | Sequence | Fold Enrichment relative to AAV9, DRG (NHP) [1] [fold] | Fold Enrichment relative to AAV9, Brain (NHP) [2] [fold] | Fold Enrichment relative to AAV9, Heart (NHP) [3] [fold] | Fold Enrichment relative to AAV9, Liver DNA (NHP) [4] [fold] | Fold Enrichment relative to AAV9, Liver RNA (NHP) [5] [fold] | Fold Enrichment relative to AAV9, Muscle (NHP) [6] [fold] | Fold Enrichment relative to AAV9, DRG (NHP) [7] [fold] | Fold Enrichment relative to AAV9, Brain (NHP) [8] [fold] | Fold Enrichment relative to AAV9, Heart (NHP) [9] [fold] | Fold Enrichment relative to AAV9, Liver DNA (NHP) [10] [fold] | Fold Enrichment relative to AAV9, Liver RNA (NHP) [11] [fold] | Fold Enrichment relative to AAV9, Muscle (NHP) [12] [fold]
1 | KTINGSGSPHSKALRHQT | 0.000 | 0.000 | 0.000 | 4.532 | 10.774 | 0.000 | – | – | – | – | – | –
2 | KTINGSGSPHSKAKGWQT | 0.000 | 0.000 | 0.000 | 1.827 | 10.450 | 0.000 | – | – | – | – | – | –
3 | KTINGSGSPHSPPDNQQT | – | – | – | – | – | – | 0.000 | 0.000 | 0.000 | 0.033 | 12.973 | 0.000
4 | KTINGSGSPHSMCTNQQT | – | – | – | – | – | – | 0.000 | 0.000 | 0.000 | 0.392 | 13.114 | 0.000
5 | KTINGSGSPHSKQRPQQT | – | – | – | – | – | – | 0.000 | 0.000 | 0.000 | 2.347 | 11.130 | 0.000
6 | KRFSGSGSPHSKAQNQQT | – | – | – | – | – | – | 0.000 | 0.000 | 0.000 | 1.358 | 11.024 | 0.000
7 | KTINGSGSPHSKRRAQQT | – | – | – | – | – | – | 0.000 | 0.000 | 0.000 | 5.906 | 26.523 | 0.000
8 | KTINGSGSPHSKPFRQQT | – | – | – | – | – | – | 0.000 | 0.000 | 0.000 | 8.700 | 29.842 | 0.000
9 | KTICGRGSPHSKAQNQQT | – | – | – | – | – | – | 0.000 | 0.000 | 0.000 | 2.171 | 18.923 | 0.000
10 | KTINGSGSPHGRYQNQQT | 0.000 | 0.000 | 0.000 | 0.778 | 10.028 | 0.000 | – | – | – | – | – | –
11 | KTINGSGSPHSRCPNQQT | – | – | – | – | – | – | 0.000 | 0.000 | 0.000 | 4.890 | 39.529 | 0.000
12 | KTINGSGSPHMAFQNQQT | – | – | – | – | – | – | 0.000 | 0.000 | 0.000 | 0.542 | 17.644 | 0.000
13 | KTINGSGSPHSVKKNQQT | – | – | – | – | – | – | 0.000 | 0.000 | 0.000 | 3.908 | 48.475 | 0.000
14 | KTINGSGSPHSYAFNQQT | – | – | – | – | – | – | 0.000 | 0.000 | 0.000 | 1.742 | 43.037 | 0.000
15 | KTINGSGSPHSSCTNQQT | – | – | – | – | – | – | 0.000 | 0.000 | 0.000 | 3.363 | 11.382 | 0.000
16 | KTINGSGSPHSKWKSQQT | – | – | – | – | – | – | 0.000 | 0.000 | 4.904 | 1.239 | 20.390 | 0.163
17 | KTINGRPSPHGKAQNQQT | – | – | – | – | – | – | 0.000 | 0.000 | 0.000 | 0.705 | 14.442 | 0.000
18 | KSRRGSGSPHSKAQNQQT | – | – | – | – | – | – | 0.000 | 0.000 | 0.000 | 1.446 | 16.131 | 0.000
19 | KTINRYSSPHSKAQNQQT | 0.000 | 0.000 | 0.000 | 1.544 | 10.926 | 0.000 | – | – | – | – | – | –
20 | KTINGSGSPHSLYWNQQT | – | – | – | – | – | – | 0.000 | 0.000 | 0.000 | 0.000 | 53.262 | 0.000
21 | KTINGSGSPHSLWKNQQT | – | – | – | – | – | – | 0.000 | 0.000 | 0.000 | 4.010 | 45.796 | 0.000
22 | KTINGSGSPHSKRYTQQT | – | – | – | – | – | – | 0.000 | 0.000 | 0.000 | 9.412 | 25.267 | 0.000
23 | KTINGSGSPHSFTPNQQT | – | – | – | – | – | – | 0.000 | 0.000 | 0.000 | 1.036 | 24.227 | 0.000
24 | KTINGSSSPHRCAQNQQT (peptide inserted in AAV capsid) | – | – | – | – | – | – | 0.000 | 0.000 | 0.000 | 1.829 | 28.887 | 0.000
25 | KTINGSGSPHSKVRMQQT | – | – | – | – | – | – | 0.000 | 0.000 | 0.000 | 1.835 | 11.572 | 0.000

Source: US20260250318A1, “COMPOSITIONS AND METHODS FOR CROSSING THE BLOOD BRAIN BARRIER” (VOYAGER THERAPEUTICS, INC., priority 2022, published 2026)
